Results as given in ChEMBL document CHEMBL4834428 (J Med Chem, 2021).

Assays:
[1] = target: T1, NAD-dependent protein deacetylase sirtuin-2 (Homo sapiens, UniProt Q8IXJ6); test: Inhibition of His6-tagged/TEV fused SIRT2 (unknown origin) expressed in Escherichia coli BL21 (DE3) preincubated for 15 mins followed by NAD+ addition and measured after 30 mins by FLucK529Ac based luminescence assay
T1 sequence (Q8IXJ6 whole entry): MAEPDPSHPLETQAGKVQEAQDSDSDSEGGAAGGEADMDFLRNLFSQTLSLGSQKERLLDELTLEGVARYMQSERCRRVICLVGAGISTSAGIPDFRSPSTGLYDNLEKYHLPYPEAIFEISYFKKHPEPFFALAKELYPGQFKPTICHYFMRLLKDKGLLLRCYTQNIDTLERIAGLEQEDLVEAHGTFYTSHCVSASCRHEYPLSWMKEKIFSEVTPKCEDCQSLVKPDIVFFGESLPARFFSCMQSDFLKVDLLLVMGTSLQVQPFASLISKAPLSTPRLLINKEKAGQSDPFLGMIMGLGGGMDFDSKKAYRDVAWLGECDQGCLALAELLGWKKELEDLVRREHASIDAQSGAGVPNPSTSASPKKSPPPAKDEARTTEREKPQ

[2] = target: T2, NAD-dependent protein deacetylase sirtuin-3, mitochondrial (Homo sapiens, UniProt Q9NTG7); test: Inhibition of His6-tagged/TEV fused SIRT3 (unknown origin) expressed in Escherichia coli BL21 (DE3) preincubated for 15 mins followed by NAD+ addition and measured after 30 mins by FLucK529Ac based luminescence assay
T2 sequence (Q9NTG7 whole entry): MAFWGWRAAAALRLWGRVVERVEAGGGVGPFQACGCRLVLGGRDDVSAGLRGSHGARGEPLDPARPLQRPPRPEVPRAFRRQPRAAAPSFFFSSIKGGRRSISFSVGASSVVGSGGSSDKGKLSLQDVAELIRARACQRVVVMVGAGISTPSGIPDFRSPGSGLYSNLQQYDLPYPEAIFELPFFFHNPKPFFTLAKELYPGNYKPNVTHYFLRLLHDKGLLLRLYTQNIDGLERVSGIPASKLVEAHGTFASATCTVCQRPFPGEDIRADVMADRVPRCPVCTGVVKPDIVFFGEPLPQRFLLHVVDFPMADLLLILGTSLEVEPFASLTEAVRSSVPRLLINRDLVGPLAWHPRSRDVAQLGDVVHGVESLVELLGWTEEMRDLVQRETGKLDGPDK

[3] = target: T3, NAD-dependent protein deacetylase sirtuin-1 (Homo sapiens, UniProt Q96EB6)
T3 sequence (Q96EB6 whole entry): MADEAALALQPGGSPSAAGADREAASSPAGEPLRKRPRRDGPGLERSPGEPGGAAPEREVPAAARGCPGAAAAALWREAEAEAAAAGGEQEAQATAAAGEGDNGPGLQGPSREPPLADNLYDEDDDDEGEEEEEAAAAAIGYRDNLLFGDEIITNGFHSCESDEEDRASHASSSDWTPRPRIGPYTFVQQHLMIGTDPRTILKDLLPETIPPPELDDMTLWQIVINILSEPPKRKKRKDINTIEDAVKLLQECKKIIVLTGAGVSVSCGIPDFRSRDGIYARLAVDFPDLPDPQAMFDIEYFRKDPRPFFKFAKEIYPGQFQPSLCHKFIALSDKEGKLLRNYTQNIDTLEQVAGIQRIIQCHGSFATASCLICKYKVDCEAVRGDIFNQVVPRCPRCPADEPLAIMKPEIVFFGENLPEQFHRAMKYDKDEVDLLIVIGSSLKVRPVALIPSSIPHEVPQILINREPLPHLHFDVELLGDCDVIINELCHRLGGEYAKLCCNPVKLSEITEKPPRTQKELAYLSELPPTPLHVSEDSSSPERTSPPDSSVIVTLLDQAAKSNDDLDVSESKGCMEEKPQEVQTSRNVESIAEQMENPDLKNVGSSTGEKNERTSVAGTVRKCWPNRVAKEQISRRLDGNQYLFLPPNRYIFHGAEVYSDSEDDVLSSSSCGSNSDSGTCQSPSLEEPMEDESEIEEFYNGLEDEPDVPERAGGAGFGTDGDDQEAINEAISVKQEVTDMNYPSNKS
Description: Inhibition of His6-tagged SIRT1 (unknown origin) expressed in Escherichia coli BL21 (DE3) preincubated for 15 mins followed by NAD+ addition and measured after 30 mins by FLucK529Ac based luminescence assay

[4] = target: T3, NAD-dependent protein deacetylase sirtuin-1; remark: listed apart in the source
Description: Uncompetitive inhibition of His6-tagged SIRT1 (unknown origin) expressed in Escherichia coli BL21 (DE3) assessed as inhibition constant measured every 2 mins for 30 mins in presence of NAD+ and ATP by FLucK549Ac based Michaelis-Menten analysis

Structure (SMILES) | IC50 [1] [µM] | IC50 [2] [µM] | IC50 [3] [µM] | Ki [4] [µM]
N#Cc1ccccc1CN1CC(C(N)=O)Oc2ccccc21 (stereo in doubt; 4.27) | 37.7 | > 60 | 0.22 | 0.4
NC(=O)C1CN(Cc2ccccc2F)c2ccccc2O1 (stereo not drawn) | 35.4 | > 60 | 1.77 | 
CC(C)(C)OC(=O)Nc1nc(CN2CC(C(N)=O)Oc3ccccc32)cs1 (stereo not drawn) | > 60 | > 60 | 5.63 | 
NC(=O)C1CN(C(=O)c2cccnc2)c2ccccc2O1 (stereo not drawn) | > 60 | > 60 | > 60 | 
